In patent US12054497B2, “Substituted heterocyclic fused cyclic compound, preparation method therefor and pharmaceutical use thereof” (GENFLEET THERAPEUTICS (SHANGHAI) INC., priority 2019, dated 2024):

Legend:
[1] = system: A549 cells with Kras G12S mutation; assay: Cell proliferation inhibition experiment, 3D spheroid, CellTiter-Glo (Test Example 1); assay type: cell-based, human; conditions: 5 days
Procedure: (§1) NCI-H358 was a human NSCLC cell line with Kras G12C mutation, which was cultured in a RPMI-1640 medium with 10% fetal bovine serum (FBS). A549 was a human lung adenocarcinoma cell line with Kras G12S mutation, which was cultured in an F-12K medium with 10% FBS. Cells in logarithmic growth phase were detached with trypsin and EDTA, collected and counted, and H358 was regulated to 1.8E4 cells/ml by using an RPMI-1640 medium with 2% FBS, while A549 was regulated to 8.9E3 cells/ml with an F-12K medium containing 2% FBS. 800 (45 μl) H358 cells and 400 (45 μl) A549 cells were seeded to 384-well spheroid plates, respectively, and cultured overnight to establish 3D cell models. 1000× stock solutions of compounds at a concentration gradient of 3.16 were prepared by using DMSO, and diluted 100 times by the medium with 2% FBS into 10× stock solutions of compounds. On the day after cell seeding, 5 μl of 10× stock solution of a compound was added to each well of cell culture plate, with a final concentration being 1× and a DMSO content of 0.1%. DMSO was used as the control, and the medium with 2% FBS was used as blank control group. After 5 days of cell culture with the compound, 25 μl of CellTiter-Glo working solution was added to each well, and mixed uniformly at 400 rpm and incubation for 30 minutes. After standing at room temperature for 30 minutes, 40 μl of mixed solution was transferred to a 384-well plate with white clear bottom. A value of luminescence was then read, and a cell proliferation inhibition rate (IR) (%)=(RLU control-RLU compound)/(RLU control−RLU blank)×100%. The value of IC50 was calculated by fitting a gradiently diluted concentration of the compound and the corresponding cell proliferation inhibition rate using a Prism 6 four-parameter method.

[2] = system: NCI-H358 cells with Kras G12C mutation; assay: as above; assay type: cell-based, human; conditions: 5 days
Procedure: as §1

[3] = system: phosphorylated ERK in MIA PaCa2 cells with Kras G12C mutation; assay: p-ERK HTRF assay for cells (Test Example 2); assay type: cell-based, human; conditions: Homo sapiens, MIA PaCa-2, 2 h, MIA PaCa2 cells, 2 hours with compound; read-out: p-ERK IC50
Procedure: MIA PaCa2 was a human pancreatic carcinoma cell line with Kras G12C mutation, which was cultured in a DMEM with 10% FBS and 2.5% Horse serum. Cells in logarithmic growth phase were detached with trypsin and EDTA, collected and counted, and 2.5E4 cells were seeded to a 96-well cell culture plate and cultured overnight. 1000× stock solutions of compounds at a concentration gradient of 3.16 were prepared by using DMSO, and diluted 200 times by the medium into 5× stock solutions of compounds. On the day after cell seeding, 5× stock solution of a compound was added to each well of cell culture plate, with a final concentration being 1× and a DMSO content of 0.1%. DMSO was used as the control. The residual culture was removed after culturing for 2 hours with the compound. To each well, 50 ul of cell lysis buffer was added and mixed uniformly and incubation for 30 minutes. Subsequently, 16 ul of mixed solution was transferred to a 96-well plate with white unclear bottom, and 16 ul of cell lysis buffer was added to the blank control group. After the completion of transfer, 4 ul of p-ERK HTRF antibody mixture was added to each well, and a value of fluorescence intensity was read after incubation for 4 hours. The inhibition rate (IR) of the compound was calculated by the following equation: IR (%)=(RLU control-RLU compound)/(RLU control−RLU blank)×100%. The value of IC50 was calculated by fitting a gradiently diluted concentration of the compound and the corresponding cell proliferation inhibition rate using a Prism 8 four-parameter method.

[4] = system: MIA PaCa-2 cells with Kras G12C mutation; assay: Cell proliferation inhibition experiment, 3D spheroid, CellTiter-Glo (Test Example 3); assay type: cell-based, human; conditions: Homo sapiens, MIA PaCa-2, 120 h, 5 days, read-out: MIA-PaCa2 IC50
Procedure: MIA PaCa-2 was a human pancreatic carcinoma cell line with Kras G12C mutation, which was cultured in a DMEM with 10% FBS and 2.5% Horse serum. A549 was a human lung adenocarcinoma cell line with Kras G12S mutation, which was cultured in an F-12K medium with 10% FBS. Cells in logarithmic growth phase were detached with trypsin and EDTA, collected and counted, and 200 MIA PaCa-2 cells and 400 A549 cells were seeded to 384-well spheroid plates, respectively, and cultured overnight to establish 3D cell models. 1000× stock solutions of compounds at a concentration gradient of 3.16 were prepared by using DMSO, and diluted 100 times by the medium into 10× stock solutions of compounds. On the day after cell seeding, 10× stock solution of a compound was added to each well of cell culture plate, with a final concentration being 1× and a DMSO content of 0.1%. DMSO was used as the control, and the medium was used as the blank. After 5 days of cell culture with the compound, 30 μl of CellTiter-Glo working solution was added to each well, and mixed uniformly and incubation for 30 minutes. After standing at room temperature for 30 minutes, 40 μl of mixed solution was transferred to a 384-well plate with white unclear bottom. A value of luminescence intensity was then read, and a cell proliferation inhibition rate (IR) (%)=(RLU control−RLU compound)/(RLU control−RLU blank)×100%. The value of IC50 was calculated by fitting a gradiently diluted concentration of the compound and the corresponding cell proliferation inhibition rate using an XLFit four-parameter method.

[5] = system: subcutaneous xenograft tumor model of MIA PaCa-2; assay: In vivo pharmacodynamic experiment, tumor growth inhibition (Test Example 5); set-up: species or system BALB/c nude mice; conditions: p.o., QD; for TGI: day 14
Procedure: Experimental objective: to evaluate the in vivo pharmaceutical effects of tested compounds on the subcutaneous xenograft tumor model of MIA PaCa-2.
Experimental operation: 6 to 8 weeks old female BALB/c nude mice each having the body weight of 18-20 g were chosen. MIA PaCa-2 cells were cultured in DMEM containing 10% FBS, 2.5% HS and 1% penicillin-streptomycin at 37° C. in an incubator with 5% CO2. Cells were collected. The MIA PaCa-2 cells were subcutaneously inoculated to the animals at their backs on the right, 2.0×10^6 cells (0.1 mL) for each animal. When tumor grew to 190-311 mm^3, mice with tumor having a suitable size were chosen and treated in groups, with administration dosages shown in Table 5 below. The animals were weighed on an electronic balance each day. The tumor volume was investigated by using a vernier caliper twice a week. The tumor volume was calculated by the following equation: V=0.5 a×b^2, a and b representing the long diameter and the short diameter of the tumor, respectively. The tumor volume was used to calculate a tumor growth inhibition rate (TGI), and the TGI shown in the form of a percentage was used to indicate the antineoplastic activity of a compound. The TGI was calculated by the following equation: TGI (%)=[1−avTi−0/avCi−0)]×100, with avTi−0 representing the average tumor volume of the group administrated with the compound on a specific day minus the average tumor volume of this group on the day of grouping, and avCi−0 representing the average tumor volume of the solvent control group on a specific day minus the average tumor volume of the solvent control group on the day of grouping. The tumor volume was shown in the form of an average value±standard error of mean (SEM).

KRas G12C = KRas G12C (Homo sapiens (Human), UniProt P01116, G12C); assay: Nucleotide exchange assay (NEA)-HTRF, SOS1 catalyzed displacement of GDP by GTP (Test Example 4); assay type: biochemical
Procedure: The effects of compounds on SOS1 catalyzed displacement of GDP by GTP on KRas proteins was examined by homogeneous time-resolved fluorescence (HTRF). 30 μM 6×his labeled KRas G12C recombinant protein and 80 μM fluorochrome DY647 labeled GDP were co-incubated in a labeling buffer (1 mM DTT, 7.5 mM EDTA, 25 mM Tris-HCl, 45 mM NaCl) at 20° C. away from light for 2 hours. Protein quantification was performed after purification on the NAP-5 column to determine the concentration of KRas G12C-GDP.
1000× stock solutions of compounds at a concentration gradient of 3.16 were prepared by using DMSO, and diluted 250 times by a reaction buffer (40 mM N-2-hydroxyethylpiperazine-N-2-ethane sulfonic acid (HEPES), 10 mM MgCl2, 1 mM DTT, 0.002% Triton X-100) into 4× stock solutions of compounds. KRas G12C-GDP/Tb working solution (40 nM KRas G12C-GDP, 1×anti-his Tb) and SOS1/GTP working solution (0.2 μM SOS1, 200 μM GTP) were prepared by using the reaction buffer.
5 μl of 4×stock solution of a compound and 10 μl of KRas G12C-GDP/T working solution were added to each well of 96-well plate with white unclear bottom, and 5 μl of reaction buffer was added to the well of control group in stead of the 4×stock solution of a compound. After incubation at 20° C. away from light for 15 minutes, 5 μl of SOS1/GTP working solution was added and incubated at 20° C. away from light for 2 hours, and then a value of fluorescence intensity was read (excitation wavelength: 320 nm, and emission wavelengths: 615 nm and 665 nm). Besides, group TO was established with 10 μl of the reaction buffer and 10 μl of the KRas G12C-GDP/Tb working solution, and the value of fluorescence intensity was directly read. A relative light unit (RLU) was calculated by the following equation: RLU=(665 nm signal/615 nm signal)×10^4; and the inhibition rate (IR) of the compound was calculated by the following equation: IR (%)=(RLUcompound−RLUcontrol)/(RLUT0−RLUcontrol)×100%. The value of IC50 was calculated by fitting a gradiently diluted concentration of the compound and the corresponding cell proliferation inhibition rate using a four-parameter method.

KRas G12C, sequence (P01116-2 other isoform, or with tags, fused parts or gaps G12C): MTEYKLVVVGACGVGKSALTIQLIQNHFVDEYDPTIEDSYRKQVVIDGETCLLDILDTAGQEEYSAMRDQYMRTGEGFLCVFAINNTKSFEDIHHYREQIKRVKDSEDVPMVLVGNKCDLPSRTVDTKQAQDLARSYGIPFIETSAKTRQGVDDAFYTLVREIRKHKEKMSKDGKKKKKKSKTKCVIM

SMILES	IC50 ([1]; Homo sapiens, A549, 120 h) [nM]	IC50 [2] [nM]	IC50 (KRas G12C) [nM]	IC50 [1] [nM]	also measured
C=CC(=O)N1C[C@@H]2C(=O)N(C)c3c(c4cc(Cl)c(-c5c(O)cccc5F)nc4n(-c4c(C(C)C)ncnc4C(C)C)c3=O)N2C[C@H]1C [Compound Z23, (2R,4aR)-3-acryloyl-11-chloro-8-(4,6-diisopropylpyrimidin-5-yl)-10-(2-fluoro-6-hydroxyphenyl)-2,6-dimethyl-2,3,4,4a,6,8-hexahydro-1H-pyrazino[1′,2′:4,5]pyrazino[2,3-c][1,8]naphthyridin-5,7-dione]	10500	–	–	–	IC50 ([2]; Homo sapiens, NCI-H358, 120 h): 2 nM; IC50 [3]: 17 nM; IC50 [4]: 2 nM; Tumor Volume on Day 14 after Administration ([5]; 1 mg/kg): 194.65 mm^3; TGI ([5]; 1 mg/kg): 113.2%; Tumor Volume on Day 14 after Administration ([5]; 3 mg/kg): 59.52 mm^3; TGI ([5]; 3 mg/kg): 143.5%; Tumor Volume on Day 14 after Administration ([5]; 10 mg/kg): 47.32 mm^3; TGI ([5]; 10 mg/kg): 149.2%
C=CC(=O)N1CCN2c3c(c(=O)n(-c4c(C)ccnc4C(C)C)c4nc(-c5c(O)cccc5F)c(F)cc34)N(C)C(=O)[C@H]2C1 (single isomer, unassigned) [Compound Z9-1]	> 10000	218	2570	–	–
[2H]C([2H])([2H])N1C(=O)[C@H]2CN(C(=O)C=C)CCN2c2c1c(=O)n(-c1c(C)ccnc1C(C)C)c1nc(-c3c(O)cccc3F)c(Cl)cc21 (single isomer, unassigned) [Compound Z26-1]	–	42	868	> 30000	–
C=CC(=O)N1CCN2c3c(c(=O)n(-c4c(C(C)C)ncnc4C(C)C)c4c(F)c(-c5c(O)cccc5F)c(Cl)cc34)NC(=O)[C@H]2C1 (single isomer, unassigned) [Compound Z37-2]	–	165	1900	3320	–
C=CC(=O)N1C[C@@H]2C(=O)N(C)c3c(c4cc(F)c(-c5c(O)cccc5F)nc4n(-c4c(C#N)cccc4C(C)C)c3=O)N2C[C@H]1C (atropisomer, axis not shown) [Compound Z38-2, 2-((2R,4aR)-3-acryloyl-11-fluoro-10-(2-fluoro-6-hydroxyphenyl)-2,6-dimethyl-5,7-dioxo-2,3,4,4a,5,6-hexahydro-1H-pyrazino[1′,2′:4,5]pyrazino[2,3-c][1,8]naphthyridin-8(7H)-yl)-3-isopropylbenzonitrile]	–	513	2150	> 30000	–
C=CC(=O)N1CCN2c3c(c(=O)n(-c4c(C)ccnc4C(C)C)c4nc(-c5c(O)cccc5F)c(F)cc34)OC[C@H]2C1 (atropisomer, axis not shown) [Compound Z1-2]	–	–	1430	–	–
[2H]C([2H])([2H])N1C(=O)[C@H]2CN(C(=O)C=C)CCN2c2c1c(=O)n(-c1c(C(C)C)ncnc1C(C)C)c1c(F)c(-c3c(O)cccc3F)c(Cl)cc21 (single isomer, unassigned) [Compound Z39-2]	–	316	2240	7780	–
C=CC(=O)N1CCN2c3c(c(=O)n(-c4c(C)ncnc4C(C)C)c4nc(-c5c(O)cccc5F)c(F)cc34)N(C)C(=O)[C@H]2C1 (single isomer, unassigned) [Compound Z21-2]	–	407	3940	> 30000	–
C=CC(=O)N1CCN2c3c(c(=O)n(-c4c(C)ccnc4C(C)C)c4nc(-c5c(O)cccc5F)c(Cl)cc34)N(C)C(=O)[C@H]2C1 (single isomer, unassigned) [Compound Z25-1]	> 30000	50	951	–	–
